Assay results reported in patent US12459951B2, “Compounds that interact with RAS superfamily proteins for treatment of cancers, inflammatory diseases, rasopathies, and fibrotic disease” (SHY Therapeutics, LLC, priority 2022, dated 2025).

How the values were obtained:
TNF-alpha = TNF-alpha Quantification Assay (ELISA), LPS-stimulated RAW 264.7; format: cell-based; settings: Mus musculus, RAW264.7; at 10 μM; read-out: TNFα: % inh.
Akt phosphorylation = assay: Akt Phosphorylation Assay (western blot), Panc-1; format: cell-based, human; settings: at 10 μM, * = activation
In short: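 Phospho-Akt (Ser473) was measured by western blot in lysates of KRas G12D Panc-1 cells exposed to test compound for 6 h at 37 °C, either at 10 μM final with 0.3% DMSO or as serial dilutions for IC50. One format used overnight 0.5% FBS starvation followed by a 15 min pulse of 1.5 ng/ml EGF. The other used cells in 10% FBS with no stimulation.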

Erk1/2 phosphorylation = assay: Erk1/2 Phosphorylation Assay (western blot), Panc-1; format: cell-based, human; settings: at 10 μM, * = activation
In short: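 Phospho-Erk1/2 (Thr202/Tyr204) was detected by western blot in lysates of Panc-1 cells (KRas G12D). These had 6 h, 37° C exposure to 10 μM compound or a dilution series for IC50, in 0.3% DMSO. Cells were either starved overnight in 0.5% FBS with a 15-min 1.5 ng/ml EGF pulse, or kept unstimulated in 10% FBS.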

Row | SMILES | inhibition at 10 µM (TNF-alpha) [%] | % inh of Akt phosphorylation in Panc-1 (Akt phosphorylation) | % inh of Erk1/2 phosphorylation in Panc-1 (Erk1/2 phosphorylation)
1 | CO[C@H]1C[C@H](Nc2nc(-c3nccn3C)nn3cc(-c4cccc(CN)c4)c(-c4ccccc4)c23)C1 [Compound 204, 6-(3-(aminomethyl)phenyl)-N-((1r,3r)-3-methoxycyclobutyl)-2-(1-methyl-1H-imidazol-2-yl)-5-phenylpyrrolo[2,1-f][1,2,4]triazin-4-amine] | 25 to 49 | C* (46-84% activation) | D* (85-100% activation)
2 | CO[C@H]1C[C@@H](Nc2nc(-c3nccn3C)nn3cc(-c4ccncc4)c(-c4ccccc4)c23)C1 [Compound 198, N-((1s,3s)-3-Methoxycyclobutyl)-2-(1-methyl-1H-imidazol-2-yl)-5-phenyl-6-(pyridin-4-yl)pyrrolo[2,1-f][1,2,4]triazin-4-amine] | 25 to 49 | C (50-84% inhibition) | D* (85-100% activation)
3 | Cc1c(-c2ccn(C)n2)cn2nc(-c3nccn3C)nc(Nc3ccc(-n4ccnc4C)cn3)c12 [Compound 243, 5-Methyl-N-(5-(2-methyl-1H-imidazol-1-yl)pyridin-2-yl)-2-(1-methyl-1H-imidazol-2-yl)-6-(1-methyl-1H-pyrazol-3-yl)pyrrolo[2,1-f][1,2,4]triazin-4-amine] | 0 | D* (85-100% activation) | C* (46-84% activation)
4 | COc1cc(Nc2nc(-c3nccn3C)nn3cc(-c4cccnc4)c(-c4cccnc4)c23)ncn1 [Compound 170, N-(6-Methoxypyrimidin-4-yl)-2-(1-methyl-1H-imidazol-2-yl)-5,6-di(pyridin-3-yl)pyrrolo[2,1-f][1,2,4]triazin-4-amine] | 0 | C* (46-84% activation) | A* (1-25% activation)
5 | CO[C@H]1C[C@H](Nc2nc(-c3nccn3C)nn3cc(-c4cccnc4)c(-c4cccnc4)c23)C1 [Compound 171, N-((1r,3r)-3-Methoxycyclobutyl)-2-(1-methyl-1H-imidazol-2-yl)-5,6-di(pyridin-3-yl)pyrrolo[2,1-f][1,2,4]triazin-4-amine] | 0 | B (26-49% inhibition) | B (26-49% inhibition)
6 | Cc1c(-c2ccn(C)n2)cn2nc(-c3nccn3C)nc(Nc3ccc(OCC(F)(F)F)cn3)c12 [Compound 230, 5-Methyl-2-(1-methyl-1H-imidazol-2-yl)-6-(1-methyl-1H-pyrazol-3-yl)-N-(5-(2,2,2-trifluoroethoxy)pyridin-2-yl)pyrrolo[2,1-f][1,2,4]triazin-4-amine] | 1 to 24 | D* (85-100% activation) | D* (85-100% activation)
7 | COc1cc(Nc2nc(-c3ccccn3)nn3cc(-c4ccn(C(C)C)n4)c(C)c23)ncn1 [Compound 13, 6-(1-Isopropyl-1H-pyrazol-3-yl)-N-(6-methoxypyrimidin-4-yl)-5-methyl-2-(pyridin-2-yl)pyrrolo[2,1-f][1,2,4]triazin-4-amine] | 0 | 0 (0% inhibition) | 0 (0% inhibition)
